According to ChEMBL document CHEMBL3046787, “Molecular modeling studies of some substituted chalcone derivatives as cysteine protease inhibitors” (Med Chem Res, 2012):

System: Plasmodium falciparum
Assay: Inhibition of Plasmodium falciparum W2

Row | IC50 (read-out: IC50) | IC50 (read-out: pIC50 (converted)) | SMILES
1 | 11100 nM | 11100 nM | COc1ccc(C(=O)/C=C/c2ccc(F)cc2F)c(OC)c1
2 | 3800 nM | 3800 nM | COc1ccc(C(=O)/C=C/c2ccc(Cl)cc2Cl)c(OC)c1
3 | 12000 nM | 12000 nM | COc1ccc(/C=C/C(=O)c2ccccn2)cc1
4 | 1900 nM | 1900 nM | COc1ccc(/C=C/C(=O)c2ccc(F)cc2F)c(OC)c1
5 | 900 nM | 899 nM | COc1ccc(/C=C/C(=O)c2ccc(Cl)cc2Cl)c(OC)c1
6 | 5000 nM | 5000 nM | COc1ccc(OC)c(/C=C/C(=O)c2ccc3ccccc3c2)c1
7 | 3300 nM | 3300 nM | COc1cccc(OC)c1/C=C/C(=O)c1ccc2ccccc2c1
8 | 4800 nM | 4800 nM | COc1cc(/C=C/C(=O)c2cccc3ccccc23)cc(OC)c1OC
9 | 6000 nM | 6000 nM | COc1cc(/C=C/C(=O)c2ccc3ccccc3c2)cc(OC)c1OC
10 | 7700 nM | 7690 nM | COc1ccc(/C=C/C(=O)c2ccc3ccccc3c2)cc1OC
11 | 360 nM | 360 nM | COc1ccc(/C=C/C(=O)c2ccc(Cl)cc2Cl)c(OC)c1OC
12 | 510 nM | 511 nM | COc1ccc(/C=C/C(=O)c2cc3ccccc3nc2Cl)cc1OC
13 | 710 nM | 710 nM | O=C(/C=C/c1cccnc1)c1cc2ccccc2nc1Cl
14 | 750 nM | 750 nM | COc1ccc(OC)c(/C=C/C(=O)c2ccc(Cl)cc2Cl)c1
15 | 770 nM | 769 nM | COc1cccc(OC)c1/C=C/C(=O)c1ccc(Cl)cc1
16 | 800 nM | 800 nM | O=C(/C=C/c1ccc(Cl)c(Cl)c1)c1ccnc2ccccc12
17 | 1000 nM | 1000 nM | COc1ccc(/C=C/C(=O)c2cc3ccccc3nc2Cl)c(OC)c1
18 | 1000 nM | 1000 nM | O=C(/C=C/c1ccc(F)cc1F)c1cc2ccccc2nc1Cl
19 | 920 nM | 920 nM | COc1ccc(OC)c(/C=C/C(=O)c2cccc(Cl)c2Cl)c1
20 | 1140 nM | 1140 nM | COc1ccc(/C=C/C(=O)c2cccc(Cl)c2Cl)cc1OC
21 | 1380 nM | 1380 nM | COc1ccc(/C=C/C(=O)c2cccc(Cl)c2Cl)c(OC)c1

Row | IC50 (read-out: IC50) | IC50 (read-out: pIC50 (converted)) | SMILES
22 | 2090 nM | 2090 nM | COc1ccc(/C=C/C(=O)c2ccc(F)c(F)c2)c(OC)c1
23 | 5000 nM | 5000 nM | COc1ccc(/C=C/C(=O)c2cccc3ccccc23)cc1OC
24 | 4300 nM | 4300 nM | COc1cc(/C=C/C(=O)c2cccc3ccccc23)cc(OC)c1
25 | 9500 nM | 9510 nM | COc1cc(/C=C/C(=O)c2ccc3ccccc3c2)cc(OC)c1
26 | 5800 nM | 5790 nM | COc1ccc(/C=C/C(=O)c2cccc3ccccc23)c(OC)c1OC
27 | 10000 nM | 10000 nM | COc1ccc(/C=C/C(=O)c2cccnc2)cc1
28 | 12000 nM | 12000 nM | COc1ccc(/C=C/C(=O)c2ccncc2)cc1
29 | 1700 nM | 1700 nM | COc1ccc(/C=C/C(=O)c2ccccn2)c(OC)c1
30 | 2700 nM | 2700 nM | COc1ccc(/C=C/C(=O)c2cccnc2)c(OC)c1
31 | 1400 nM | 1400 nM | COc1ccc(OC)c(/C=C/C(=O)c2ccccn2)c1
32 | 2300 nM | 2300 nM | COc1ccc(/C=C/C(=O)c2ccccn2)c(OC)c1OC
33 | 3900 nM | 3900 nM | COc1ccc(/C=C/C(=O)c2cccnc2)c(OC)c1OC
34 | 3200 nM | 3200 nM | COc1ccc(/C=C/C(=O)c2ccncc2)c(OC)c1OC
35 | 230 nM | 230 nM | O=C(/C=C/c1cc(Cl)ccc1Cl)c1ccnc2ccccc12
36 | 10000 nM | 10000 nM | COc1ccc(/C=C/C(=O)c2cccc3ccccc23)cc1
37 | 4600 nM | 4600 nM | COc1ccc(/C=C/C(=O)c2cccc3ccccc23)c(OC)c1
38 | 2800 nM | 2800 nM | COc1ccc(OC)c(/C=C/C(=O)c2cccc3ccccc23)c1
39 | 3100 nM | 3100 nM | COc1cccc(OC)c1/C=C/C(=O)c1cccc2ccccc12
40 | 1180 nM | 1180 nM | O=C(/C=C/c1ccc(-n2ccnc2)cc1)c1ccc(Cl)cc1Cl
41 | 750 nM | 750 nM | COc1ccc(/C=C/C(=O)c2ccc(C(F)(F)F)cc2)c(OC)c1
